In patent US20190093170A1, “USE OF TRANSLATIONAL PROFILING TO IDENTIFY TARGET MOLECULES FOR THERAPEUTIC TREATMENT” (THE REGENTS OF THE UNIVERSITY OF CALIFORNIA, priority 2013, published 2019):

Tested on: Pten^L/L prostate cancer mouse model
Experiment: Pharmacological treatment of Pten^L/L mice (preclinical trial; IHC, immunofluorescence, histology, MRI, lymph node metastasis)
Assay type: in vivo
Settings: 28 days, RAD001 10 mg/kg daily
Description: Weight measurements were taken every 3 days to monitor for toxicity. For the 28-day study, mice were imaged via MRI at day 0 and day 28 in a 14-T GE MR scanner (GE Healthcare).
Whole mouse prostates were removed from wild-type and Pten^L/L mice, microdissected, and frozen in liquid nitrogen. Frozen tissues were subsequently manually disassociated using a biopulverizer (Biospec) and additionally processed for protein and mRNA analysis as described above.
Prostates and lymph nodes were dissected from mice within 2 hr of the indicated treatment and fixed in 10% formalin overnight at 4° C. Tissues were subsequently dehydrated in ethanol (Sigma) at room temperature, mounted into paraffin blocks, and sectioned at 5 μm. Specimens were de-paraffinized and rehydrated using CitriSolv (Fisher) followed by serial ethanol washes. […] Sections were washed in distilled water followed by TBS washes. The sections were then incubated in 5% goat serum, 1% BSA in TBS for 1 hr at room temperature. Various primary antibodies were used, including those specific for keratin 5 (Covance), cytokeratin 8 (Abcam and Covance), YB1 (Abcam), vimentin (Abcam), MTA1 (Cell signaling), CD44 (BD Pharmingen), and the androgen receptor (Epitomics), which were diluted 1:50-1:500 in blocking solution and incubated on sections overnight at 4° C. Specimens were then washed in TBS and incubated with the appropriate Alexa 488 and 594 labeled secondary (Invitrogen) at 1:500 for 2 hr at room temperature, with the exception of YB1 which was incubated with biotinylated anti-rabbit secondary (Vector) followed by incubation with Alexa 594 labeled Streptavidin (Invitrogen). A final set of washes in TBS was completed at room temperature followed by mounting with DAPI Hardset Mounting Medium (Vector Lab). A Zeiss Spinning Disc confocal (Zeiss, CSU-X1) was used to image the sections at 40×-100×. Individual prostate cells were quantified for mean fluorescence intensity (m.f.i.) using the Axiovision (Zeiss, Release 4.8) densitometric tool.
Mouse lymph nodes were processed as described above and stained for CK8 and androgen receptor. Lymph nodes were imaged using a Zeiss AX10 microscope. Metastases were identified and areas were measured using the Axiovision (Zeiss, Release 4.8) measurement tool.
Immunohistochemistry was performed as described above (see “Immunofluorescence”) with the exception that immediately after antigen […] and TBS washes, specimens were incubated in 3% hydrogen peroxide in TBS followed by TBS washes. The following primary antibodies were used: phospho-AKT^S473 (Cell Signaling), phospho-rpS6^S240/244 (Cell Signaling), phospho-4EBP1^T37/46 (Cell Signaling), phospho-histone H3 (Upstate), and cleaved caspase (Cell Signaling). […] The protein of interest was detected using DAB (Sigma). […]

[1] = ATP site inhibitor of mTOR 1 mg/kg daily

For CO[C@H]1C[C@@H]2CC[C@@H](C)[C@@](O)(O2)C(=O)C(=O)N2CCCC[C@H]2C(=O)O[C@H]([C@H](C)C[C@@H]2CC[C@@H](OCCO)[C@H](OC)C2)CC(=O)[C@H](C)/C=C(\C)[C@@H](O)[C@@H](OC)C(=O)[C@H](C)C[C@H](C)/C=C/C=C/C=C/1C [RAD001], the “4EBP1 and p70S6K1/2 phosphorylation” value [1] was “only decreased p70S6K1/2 phosphorylation levels”, the “apoptosis (cleaved caspase 3)” value [1] was “no significant effect” and the “proliferation (phospho-histone H3)” value [1] was “limited decrease in cell proliferation”. The “regression of PIN lesions” value was “only partial regression of PIN lesions”.
